What was measured:
Human mGlu2 = Human mGlu2 (Homo sapiens, UniProt Q14416); test: mGlu receptor in vitro assay, human mGlu2; format: cell-based
Human mGlu3 = Human mGlu3 (Homo sapiens, UniProt Q14832); test: mGlu receptor in vitro assay, human mGlu3; format: cell-based
Method: Human Embryonic Kidney (HEK-293) cell lines co-expressing rat mGlu receptors 2, 3, 4, 6, 7 or 8 and G protein-coupled inwardly-rectifying potassium (GIRK) channels were grown in Growth Media containing 45% DMEM, 45% F-12, 10% FBS, 20 mM HEPES, 2 mM L-glutamine, antibiotic/antimycotic, non-essential amino acids, 700 μg/mL G418, and 0.6 μg/ml puromycin at 37° C. in the presence of 5% CO2. […] All cell culture reagents were purchased from Invitrogen Corp. (Carlsbad, CA) unless otherwise noted. Calcium assays were used to assess activity of compounds at mGlu1 and mGlu5, as previously described in Engers et al (J. Med. Chem. 2009, 52, 4115-4118). Calcium assays at mGlu3 were performed as described for mGlu5 with the exception that TREx293 mGlu3 Gα15 cells were treated with tetracycline at 20 ng/mL for 20 h prior to assay.
Briefly, cells were plated into 384-well, black-walled, clear-bottomed poly-D-lysine-coated plates at a density of 15,000 cells/20 μL/well in DMEM containing 10% dialyzed FBS, 20 mM HEPES, and 100 units/mL penicillin/streptomycin (assay media). Plated cells were incubated overnight at 37° C. in the presence of 5% CO2. The following day, the medium was exchanged from the cells to assay buffer [Hanks' balanced salt solution (Invitrogen) containing 20 mM HEPES, pH 7.3] using an ELX405 microplate washer (BioTek), leaving 20 μL/well, followed by the addition of 20 μL/well FluoZin2-AM (330 nM final concentration) indicator dye (Invitrogen; prepared as a stock in DMSO and mixed in a 1:1 ratio with Pluronic acid F-127) in assay buffer. Cells were incubated for 1 h at room temperature, and the dye exchanged to assay buffer using an ELX405, leaving 20 μL/well. Test compounds were diluted to 2 times their final desired concentration in assay buffer (0.3% DMSO final concentration). Agonists were diluted in thallium buffer [125 mM sodium bicarbonate (added fresh the morning of the experiment), 1 mM magnesium sulfate, 1.8 mM calcium sulfate, 5 mM glucose, 12 mM thallium sulfate, and 10 mM HEPES, pH 7.3] at 5 times the final concentration to be assayed. Cell plates and compound plates were loaded onto a kinetic imaging plate reader (FDSS 6000 or 7000; Hamamatsu Corporation, Bridgewater, NJ). Appropriate baseline readings were taken (10 images at 1 Hz; excitation, 470±20 nm; emission, 540±30 nm) and test compounds were added in a 20 μL volume and incubated for approximately 2.5 min before the addition of 10 μL of thallium buffer with or without agonist. After the addition of agonist, data were collected for approximately an additional 2.5 min. Data were analyzed using Excel (Microsoft Corp, Redmond, WA). The slope of the fluorescence increase beginning 5 s after thallium/agonist addition and ending 15 s after thallium/agonist addition was calculated, corrected to vehicle and maximal agonist control slope values, and plotted in using either XLfit (ID Business Solutions Ltd) or Prism software (GraphPad Software, San Diego, CA) to generate concentration-response curves. Potencies were calculated from fits using a four-point parameter logistic equation. For concentration-response curve experiments, compounds were serially diluted 1:3 into 10-point concentration response curves and were transferred to daughter plates using an Echo acoustic plate reformatter (Labcyte, Sunnyvale, CA). Test compounds were applied and followed by EC20 concentrations of glutamate.

Sequence of Human mGlu2 (Q14416 19-872): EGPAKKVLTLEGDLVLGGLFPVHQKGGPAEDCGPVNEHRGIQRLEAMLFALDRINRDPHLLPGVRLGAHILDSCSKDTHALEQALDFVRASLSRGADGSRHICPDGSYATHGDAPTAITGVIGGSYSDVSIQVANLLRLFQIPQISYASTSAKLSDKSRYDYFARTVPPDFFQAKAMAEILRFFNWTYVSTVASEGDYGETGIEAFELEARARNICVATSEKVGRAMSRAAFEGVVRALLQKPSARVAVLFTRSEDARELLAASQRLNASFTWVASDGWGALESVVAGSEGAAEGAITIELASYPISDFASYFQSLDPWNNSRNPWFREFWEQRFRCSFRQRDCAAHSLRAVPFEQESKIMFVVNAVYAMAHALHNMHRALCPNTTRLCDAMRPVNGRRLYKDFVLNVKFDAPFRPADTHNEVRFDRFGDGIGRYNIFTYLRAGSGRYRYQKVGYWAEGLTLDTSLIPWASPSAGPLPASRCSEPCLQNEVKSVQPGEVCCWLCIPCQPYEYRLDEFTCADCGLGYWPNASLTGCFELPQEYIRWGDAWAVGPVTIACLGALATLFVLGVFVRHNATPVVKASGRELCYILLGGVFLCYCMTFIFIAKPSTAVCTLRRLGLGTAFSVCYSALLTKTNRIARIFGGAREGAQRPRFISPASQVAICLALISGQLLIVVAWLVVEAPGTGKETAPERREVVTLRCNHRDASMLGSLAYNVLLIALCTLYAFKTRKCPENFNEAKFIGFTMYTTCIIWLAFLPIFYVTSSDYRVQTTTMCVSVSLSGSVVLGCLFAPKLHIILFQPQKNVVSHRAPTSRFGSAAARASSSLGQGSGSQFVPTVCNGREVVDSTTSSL
Sequence of Human mGlu3 (Q14832 23-879): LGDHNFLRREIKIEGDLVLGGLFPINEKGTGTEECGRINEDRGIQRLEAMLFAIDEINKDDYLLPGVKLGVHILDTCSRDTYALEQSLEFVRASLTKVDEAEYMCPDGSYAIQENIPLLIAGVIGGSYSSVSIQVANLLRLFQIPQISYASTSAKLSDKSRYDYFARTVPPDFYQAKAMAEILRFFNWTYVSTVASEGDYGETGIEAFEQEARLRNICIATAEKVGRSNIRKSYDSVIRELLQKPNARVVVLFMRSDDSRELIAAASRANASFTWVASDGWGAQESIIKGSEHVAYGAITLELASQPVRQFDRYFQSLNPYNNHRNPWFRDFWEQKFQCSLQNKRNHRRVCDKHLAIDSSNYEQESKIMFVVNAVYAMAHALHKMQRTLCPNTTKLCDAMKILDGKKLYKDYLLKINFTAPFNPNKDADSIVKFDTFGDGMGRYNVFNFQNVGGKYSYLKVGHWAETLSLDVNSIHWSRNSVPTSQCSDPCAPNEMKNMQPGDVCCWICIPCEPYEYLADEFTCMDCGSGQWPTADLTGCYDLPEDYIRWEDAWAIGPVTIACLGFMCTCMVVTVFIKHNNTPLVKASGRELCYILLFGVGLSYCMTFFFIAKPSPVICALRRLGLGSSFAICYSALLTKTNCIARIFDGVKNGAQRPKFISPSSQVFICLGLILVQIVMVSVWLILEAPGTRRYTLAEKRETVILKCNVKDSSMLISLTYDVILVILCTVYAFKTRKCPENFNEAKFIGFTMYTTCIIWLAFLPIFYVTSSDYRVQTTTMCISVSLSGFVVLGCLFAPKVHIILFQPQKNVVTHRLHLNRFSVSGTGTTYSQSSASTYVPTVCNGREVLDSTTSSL

Row | EC50 (Human mGlu2) [nM] | EC50 (Human mGlu3) [nM] | SMILES
1 | > 10000 | > 10000 | Cc1c(OCc2cnc(-c3cccc(O)c3)cn2)ccc(C(=O)CC(C)(C)C)c1O [compound 145, 1-(2-Hydroxy-4-{[5-(3-hydroxyphenyl)pyrazin-2-yl]methoxy}-3-methylphenyl)-3,3-dimethylbutan-1-one]
2 | 882 | > 10000 | COc1ccc(C(=O)O)cc1OCCCCCCCCOc1ccc(C(=O)CC(C)(C)C)c(O)c1C [Example 18, 3-{8-[4-(3,3-Dimethylbutanoyl)-3-hydroxy-2-methylphenoxy]octyloxy}-4-methoxybenzoic acid]
3 | 373 | > 30000 | COc1ccc(C(=O)O)cc1OCCN(CCOc1ccc(C(=O)CC(C)(C)C)c(O)c1C)S(=O)(=O)c1ccc(C)cc1 [Example 31, 3-[2-({2-[4-(3,3-Dimethylbutanoyl)-3-hydroxy-2-methylphenoxy]ethyl}[(4-methylphenyl)sulfonyl]amino)ethoxy]-4-methoxybenzoic acid]
4 | > 30000 | > 30000 | COc1ccc(C(=O)O)c(-c2cnc(COc3ccc(C#CCOCC(O)CO)c(C)c3C)cn2)c1 (stereo not drawn) [compound 151]
5 | 415 | 995 | COc1ccc(C(=O)O)cc1OCCCCCCCCCCOc1ccc(C(=O)CC(C)(C)C)c(O)c1C [Example 28, 3-{10-[4-(3,3-Dimethylbutanoyl)-3-hydroxy-2-methylphenoxy]decyloxy}-4-methoxybenzoic acid]
6 | 44 | 85 | COc1c(C(=O)O)cccc1-c1cnc(COc2ccc(C(=O)CC(C)(C)C)c(O)c2C)nc1 [compound 159, 3-(2-((4-(3,3-Dimethylbutanoyl)-3-hydroxy-2-methylphenoxy)methyl)pyrimidin-5-yl)-2-methoxybenzoic acid]
7 | > 10000 | > 30000 | Cc1c(OCc2cnc(-c3cncc(C(=O)O)c3)cn2)ccc(C(=O)CC(C)(C)C)c1O [compound 148, 5-(5-((4-(3,3-Dimethylbutanoyl)-3-hydroxy-2-methylphenoxy)methyl)pyrazin-2-yl)nicotinic acid]
8 | 119 | > 10000 | Cc1c(OCc2nc(-c3cccc(C(=O)O)c3)no2)ccc(C(=O)C2CC2)c1O [compound 77, 3-(5-((4-(Cyclopropanecarbonyl)-3-hydroxy-2-methylphenoxy)methyl)-1,2,4-oxadiazol-3-yl)benzoic acid]
9 | 710 | 1120 | COc1ccc(C(=O)O)cc1OCCCCCCCCCOc1ccc(C(=O)CC(C)(C)C)c(O)c1C [Example 27, 3-{9-[4-(3,3-Dimethylbutanoyl)-3-hydroxy-2-methylphenoxy]nonyloxy}-4-methoxybenzoic acid]
10 | 1350 | 750 | COc1ccc(C(=O)O)cc1CCCCCOc1ccc(C(=O)CC(C)(C)C)c(O)c1C [Example 3, 3-(5-(4-(3,3-Dimethylbutanoyl)-3-hydroxy-2-methylphenoxy)pentyl)-4-methoxybenzoic acid]
11 | > 30000 | > 30000 | COc1c(C(=O)O)cccc1-c1cnc(COc2ccc3c(c2C)OC(C)(C)CC3=O)cn1 [compound 147, 2-Methoxy-3-(5-(((2,2,8-trimethyl-4-oxochroman-7-yl)oxy)methyl)pyrazin-2-yl)benzoic acid]
12 | 8 | 540 | [2H]/C(=C(/[2H])C([2H])([2H])Oc1ccc(C(=O)CCC)c(O)c1C)C([2H])([2H])Oc1cccc(C(=O)O)c1C [Example 58, (E)-3-((4-(4-Butyryl-3-hydroxy-2-methylphenoxy)but-2-en-1-yl-1,1,2,3,4,4-d6)oxy)-2-methylbenzoic acid]
13 | 547 | 603 | Cc1c(OCc2cnc(-c3ccc(C(=O)O)s3)cn2)ccc(C(=O)CC(C)(C)C)c1O [compound 141, 5-(5-((4-(3,3-Dimethylbutanoyl)-3-hydroxy-2-methylphenoxy)methyl)pyrazin-2-yl)thiophene-2-carboxylic acid]
14 | 924 | 1650 | Cc1c(OCc2cccc(-c3cccc(C(=O)O)c3)c2)ccc(C(=O)c2ccc(F)cc2)c1O [compound 74, 3′-((4-(4-Fluorobenzoyl)-3-hydroxy-2-methylphenoxy)methyl)-[1,1′-biphenyl]-3-carboxylic acid]
15 | 1750 | 1080 | Cc1c(OCc2cnc(-c3cc(F)cc(C(=O)O)c3)cn2)ccc(C(=O)CC(C)(C)C)c1O [compound 139, 3-(5-((4-(3,3-Dimethylbutanoyl)-3-hydroxy-2-methylphenoxy)methyl)pyrazin-2-yl)-5-fluorobenzoic acid]
16 | 130 | 74 | COc1c(C(=O)O)cccc1-c1ccc(COc2ccc(C(=O)CC(C)(C)C)c(O)c2C)nc1 [compound 152, 3-(6-((4-(3,3-Dimethylbutanoyl)-3-hydroxy-2-methylphenoxy)methyl)pyridin-3-yl)-2-methoxybenzoic acid]
17 | 228 | 461 | Cc1c(OCCCCSc2cccc(C(=O)O)c2)ccc(C(=O)CC(C)(C)C)c1O [compound 80, 3-((4-(4-(3,3-Dimethylbutanoyl)-3-hydroxy-2-methylphenoxy)butyl)thio)benzoic acid]
18 | 291 | 580 | Cc1c(OCc2cnc(-c3ccc(C(=O)O)cc3Cl)cn2)ccc(C(=O)CC(C)(C)C)c1O [compound 143, 3-Chloro-4-(5-((4-(3,3-Dimethylbutanoyl)-3-hydroxy-2-methylphenoxy)methyl)pyrazin-2-yl)benzoic acid]
19 | 243 | 327 | Cc1c(OCc2nnc(-c3cccc(C(=O)O)c3)o2)ccc(C(=O)CC(C)(C)C)c1O [compound 134, 3-(5-((4-(3,3-Dimethylbutanoyl)-3-hydroxy-2-methylphenoxy)methyl)-1,3,4-oxadiazol-2-yl)benzoic acid]
20 | 423 | 3000 | Cc1c(SCCCCSc2cccc(C(=O)O)c2)ccc(C(=O)CC(C)(C)C)c1O [compound 82, 3-{4-[4-(3,3-Dimethylbutanoyl)-3-hydroxy-2-methylphenylthio]butylthio}benzoic acid]
21 | 78 | 117 | COc1ccc(C(=O)O)cc1-c1noc(COc2ccc(C(=O)CC(C)(C)C)c(O)c2C)n1 [compound 156, 3-(5-((4-(3,3-Dimethylbutanoyl)-3-hydroxy-2-methylphenoxy)methyl)-1,2,4-oxadiazol-3-yl)-4-methoxybenzoic acid]
22 | 281 | 184 | COc1c(C(=O)O)cccc1-c1ccc(COc2ccc(C(=O)CC(C)(C)C)c(O)c2C)nn1 [compound 154, 3-(6-((4-(3,3-Dimethylbutanoyl)-3-hydroxy-2-methylphenoxy)methyl)pyridazin-3-yl)-2-methoxybenzoic acid]

Row | SMILES | EC50 (Human mGlu2) [nM] | EC50 (Human mGlu3) [nM]
23 | COc1ccc(C(=O)O)cc1OCCCCOc1ccc(C(=O)CC(C)(C)C)c(O)c1-c1ccccc1 [compound 131, 3-(4-((5-(3,3-Dimethylbutanoyl)-6-hydroxy-[1,1′-biphenyl]-2-yl)oxy)butoxy)-4-methoxybenzoic acid] | 231 | 1050
24 | COc1ccc(C(=O)c2ccc(OCCCCOc3cc(C(=O)O)ccc3OC)c(C)c2O)cc1 [compound 63, 3-(4-(3-Hydroxy-4-(4-methoxybenzoyl)-2-methylphenoxy)butoxy)-4-methoxybenzoic acid] | 507 | 557
